In the METLIN SMRT retention time set (Domingo-Almenara et al. 2019):

Assay: gradient 5% acetonitrile 3 min, to 50% in 2 min, to 85% in 15 min, held 3 min, 100 µL/min
Conditions: column: Zorbax Extend-C18 2.1 x 50 mm; eluents: water / acetonitrile, 0.1% formic acid
Summary of the method: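 The mobile phases were water and acetonitrile, each with 0.1% formic acid, pumped at 100 μL/min through a Zorbax Extend-C18 column (2.1 × 50 mm, 1.8 μm). Pure standards were injected as mixtures of ~100 molecules and detected by a quadrupole time-of-flight mass spectrometer in positive and negative ionization mode. Retention time came from computationally picked adduct peaks, each inspected by hand.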

In the case of `Oc1ccccc1Nc1ccccn1`, the RP-LC retention time is reported as 597 s.

`O=C(NCCc1ccccc1)Nc1cnn(-c2ncc(N3CCCCC3)cn2)c1` gave an RP-LC retention time of 799 s.

With `O=C(NCCc1nc2cccnc2n1Cc1ccccc1)Nc1ccc2c(c1)OCO2` the RP-LC retention time was 726 s.

For `COc1ccc(-n2ncc3c(=O)n(Cc4nc(-c5ccccc5)no4)cnc32)cc1`, the RP-LC retention time was 961 s.

In the case of `CC(C)Oc1ccc(CNS(=O)(=O)c2cc3c(s2)CCN(C(=O)C2CCC2)C3)cc1`, the RP-LC retention time is reported as 1010 s.

Compound `COC(=O)c1ccc(-c2nc3cnccn3c2Nc2c(C)cccc2C)cc1` has an RP-LC retention time of 914 s.

For `CCNC(=O)c1cn(-c2ccc(NC(=O)CC(C)C)cn2)cn1`, the RP-LC retention time was 658 s.

`Cc1sc2ccn(Cc3ccc(F)cc3)c(=O)c2c1C(=O)NCc1cccs1` gave an RP-LC retention time of 945 s.

For `CCS(=O)(=O)Nc1cc(-c2nnc(C)o2)sc1C`, the RP-LC retention time was 738 s.

With `O=C(CCC1CCCC1)NCCC1CCN(C(=O)Nc2cc(F)ccc2F)CC1` the RP-LC retention time was 924 s.

`O=C(C1CCCN(c2nccnc2Oc2ccccc2)C1)N1CCN(c2cccc(Cl)c2)CC1` (configuration not stated) showed an RP-LC retention time of 1180 s.

With `C=CCn1c(NCc2cccc(Br)c2)nc2ccccc21` the RP-LC retention time was 703 s.

Work on `CCc1cc(C(=O)Nc2cc(Cl)ccc2OC)nc2ccnn12` yielded an RP-LC retention time of 1210 s.

Work on `CCCn1nc2n(c1=O)CCN(Cc1ccc(C)c(C)c1)C2` yielded an RP-LC retention time of 749 s.

`Cc1cc(C)cc(NS(=O)(=O)c2cc(-c3nc(C(C)C)cs3)cs2)c1` showed an RP-LC retention time of 1210 s.

For `CCCNC(=O)C1CCCN(c2ccc(SCC(=O)Nc3cc(F)ccc3Cl)nn2)C1` (configuration not stated), the RP-LC retention time was 748 s.

For `C=CCn1nnc(NCc2ccc(-c3cccc(Cl)c3C)o2)n1`, the RP-LC retention time was 1090 s.

Compound `Cc1sc(NC(=O)c2ccccc2Cl)nc1-c1ccc2c(c1)N(C)C(=O)CO2` has an RP-LC retention time of 968 s.

With `CCCNC(=O)Cn1c(CC)nc2ccccc21` the RP-LC retention time was 578 s.

Work on `Cc1ccc(F)cc1S(=O)(=O)N1CCN(c2ccc(N3CCOCC3)nn2)CC1` yielded an RP-LC retention time of 592 s.

With `COc1ccc(N2CCN(c3ccc(-c4nc(-c5cccc(F)c5)no4)cn3)CC2)cc1` the RP-LC retention time was 1310 s.

`Cc1ccc(CNC(=O)C2(C)Cn3nc(C(=O)NCCN(C)C)cc3C(=O)N2C)cc1` (configuration not stated) gave an RP-LC retention time of 639 s.

Work on `O=C(NC1CC1)C1COC2(CCN(C(=O)c3cccc(Cl)c3)CC2)N1C(=O)c1cccc(F)c1` (configuration not stated) yielded an RP-LC retention time of 738 s.

For `CC(=O)Nc1c(C)noc1/C=C/c1ccc(S(=O)(=O)N2CCC(C)CC2)s1`, the RP-LC retention time was 869 s.

For `CC1=C(c2ccc(C)cc2)S(=O)(=O)N=C1N1CCCN(C(=O)CCC(C)C)CC1`, the RP-LC retention time was 888 s.

`CCC(Oc1ccccc1)C(=O)Nc1nc(-c2ccc(Cl)cc2)cs1` (configuration not stated) gave an RP-LC retention time of 1240 s.

In the case of `CCOc1ccc(N2CC(c3nc(-c4ccccc4C)no3)CC2=O)cc1` (configuration not stated), the RP-LC retention time is reported as 931 s.

Compound `O=C(c1nnc(-c2ccc(S(=O)(=O)N3CCOCC3)cc2)o1)N1CCC(Cc2ccccc2)CC1` has an RP-LC retention time of 1080 s.

`COc1ccc(-n2c(=O)c(C(=O)NC3CCCCC3)c(O)c3cccnc32)cc1` showed an RP-LC retention time of 1300 s.

With `NC(N)=NCCC[C@H](NC(=O)c1sccc1NS(=O)(=O)c1cccc2nsnc12)C(=O)O` the RP-LC retention time was 685 s.

Work on `O=C(c1cc(-c2cccs2)n(C2CCS(=O)(=O)C2)n1)N1CCN(c2ccccn2)CC1` (configuration not stated) yielded an RP-LC retention time of 602 s.

`Cc1ccc2c(CN3CCN(c4ccccn4)CC3)cc(=O)oc2c1` gave an RP-LC retention time of 634 s.

For `CCc1cc(C(=O)Nc2cc(C)ccc2F)nc2ccnn12`, the RP-LC retention time was 1150 s.

For `COC(=O)c1ccc(CSc2nnc(N3CCN(c4ccccc4OC)CC3)s2)o1`, the RP-LC retention time was 894 s.

Work on `CCCC(=O)Nc1cnc(-c2ccccc2)nc1` yielded an RP-LC retention time of 815 s.

In the case of `O=C(Nc1ccc(F)cc1F)NC1CCN(c2ccc(F)cc2)C1=O` (configuration not stated), the RP-LC retention time is reported as 823 s.

In the case of `CC1CN(C2CCCCC2)c2nc3c(c(=O)n(CCCO)c(=O)n3C)n2C1` (configuration not stated), the RP-LC retention time is reported as 803 s.
